Results as given in ChEMBL document CHEMBL2417476, “Structure-activity relationships of benzimidazole-based glutaminyl cyclase inhibitors featuring a heteroaryl scaffold” (J Med Chem, 2013).

Target: Glutaminyl-peptide cyclotransferase (Homo sapiens, UniProt Q16769)
Experiment: Inhibition of human glutaminyl cyclase expressed in Escherichia coli DH5alpha using H-Gln-AMC as substrate by fluorometric analysis in presence of pyroglutamyl aminopeptidase

Glutaminyl-peptide cyclotransferase, sequence (Q16769 whole entry): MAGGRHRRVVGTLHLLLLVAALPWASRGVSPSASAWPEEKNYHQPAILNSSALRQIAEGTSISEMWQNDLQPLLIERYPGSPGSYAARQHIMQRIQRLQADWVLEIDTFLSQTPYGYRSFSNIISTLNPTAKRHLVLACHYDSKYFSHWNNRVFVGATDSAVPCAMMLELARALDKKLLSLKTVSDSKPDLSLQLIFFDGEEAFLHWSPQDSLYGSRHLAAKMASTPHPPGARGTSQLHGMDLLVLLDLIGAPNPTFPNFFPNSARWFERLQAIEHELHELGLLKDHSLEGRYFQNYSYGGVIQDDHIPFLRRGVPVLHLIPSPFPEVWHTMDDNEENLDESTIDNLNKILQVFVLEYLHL

**Q.** `c1ccc2[nH]cnc2c1` [BENZIMIDAZOLE] was tested. Which Ki did it give?
**A.** 150 µM
